Test results published in US9949917B2, “Cosmetic composition comprising a combination of a sugar fatty acid ester with a plant extract of Waltheria indica or Pisum sativum for skin whitening” (Cognis IP Management GmbH, priority 2006, dated 2018).

Tests used:
[1] = test system: Melanocytes (B16 cell line); assay: Melanogenesis inhibition assay: level of melanin (optical density at 475 nm); format: cell-based
Description: Melanocytes (B16 cell line) were inoculated in standard medium of cell culture with foetal calf serum (FCS). After an incubation for 3 days at 37° C. and CO2=5%, growth medium was exchanged for standard medium with a range of concentrations for each ingredient to be tested and a control without ingredient. After an incubation of 3 days, the level of melanin is measured by recording the optical density at 475 nm. After washing the cells by a balanced salt, and homogenisation in a solution of 0.1 M NaOH, the number of viable cells is determined by evaluation of the level of cellular proteins (Bradford's method).
Combinations of ingredients have been tested on the same cell cultures, in parallel with the ingredients alone. The results are expressed in % against control (cell culture medium without ingredient) as a mean+/−SEM (Standard Error of Mean) on 2 or 3 assays, each in triplicate.

[2] = molecular target: T1, Tyrosinase in B16 melanocytes (Mus musculus, UniProt P11344); assay: Tyrosinase activity on melanocytes (DL-DOPA, optical density at 475 nm); format: cell-based
T1 construct: endogenous in cells; host or cells: B16 melanocytes (cell line)
T1 sequence (P11344 19-533): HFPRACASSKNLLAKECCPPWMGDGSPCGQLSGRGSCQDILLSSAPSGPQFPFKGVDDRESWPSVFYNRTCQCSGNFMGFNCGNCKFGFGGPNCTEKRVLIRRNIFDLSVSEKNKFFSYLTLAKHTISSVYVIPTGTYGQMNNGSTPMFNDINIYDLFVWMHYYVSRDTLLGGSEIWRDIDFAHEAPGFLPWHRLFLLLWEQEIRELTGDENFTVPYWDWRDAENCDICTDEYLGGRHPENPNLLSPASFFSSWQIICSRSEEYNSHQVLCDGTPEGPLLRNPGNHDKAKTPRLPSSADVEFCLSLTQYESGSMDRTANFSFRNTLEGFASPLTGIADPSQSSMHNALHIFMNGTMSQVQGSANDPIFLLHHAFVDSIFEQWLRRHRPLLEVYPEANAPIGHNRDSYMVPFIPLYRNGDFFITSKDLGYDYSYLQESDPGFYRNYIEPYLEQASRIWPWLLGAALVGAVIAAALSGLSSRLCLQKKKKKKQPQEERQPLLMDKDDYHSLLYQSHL
Description: Melanocytes (B16 cell line) were inoculated in standard medium of cell culture with foetal calf serum (FCS). […] Combinations of ingredients have been tested on the same cultures, in parallel with ingredients alone. […] The optical density at 475 nm is expressed as a % against control and presented as a mean+/−SEM (standard error of mean) of triplicates.

[3] = sucrose laurate 0.0003% (w/v) alone, 3 assays

effect on tyrosinase activity in melanocytes (in words) ([2]; Tables 7 and 8): decreases the tyrosinase activity
Tyrosinase activity in %/control ([2]; sucrose laurate 0.005% (w/v) alone): 75 +/− 6 %/control
Tyrosinase activity in %/control ([2]; sucrose laurate 0.01% (w/v) alone): 64 +/− 7 %/control
Substance: Sucrose laurate [Sucrose laurate of example 5]
Rate of melanin in %/control [1, 3]: 56 +/− 18 %/control
Ratio of rate of cellular proteins on rate of melanin [1, 3]: 1.8
Rate of melanin in %/control ([1]; sucrose laurate 0.0003% (w/v) alone, 3 assays, listed as sucrose laurate): 56+/−18 %/control
Rate of melanin in %/control ([1]; sucrose laurate 0.001% (w/v) alone, 2 assays (Table 5)): 56 +/− 7 %/control
Ratio of rate of cellular proteins on rate of melanin ([1]; sucrose laurate 0.001% (w/v) alone, 2 assays (Table 6)): 1.6
Rate of melanin in %/control ([1]; sucrose laurate 0.001% (w/v) alone, 3 assays (Table 2)): 54 +/− 16 %/control
Rate of melanin in %/control ([1]; sucrose laurate 0.001% (w/v) alone, 3 assays (Table 2), listed as sucrose laurate): 54+/−16 %/control
Ratio of rate of cellular proteins on rate of melanin ([1]; sucrose laurate 0.001% (w/v) alone, 3 assays (Table 3)): 1.8
